≈ marks a conversion by molar mass, not a printed value. Read-outs that look alike come from different tables or passages of the source.
Experiments:
[1] = test system: synthesis of sphingolipid GlcCer in C. neoformans; conditions: in words, 'It was known'; cited from earlier work
C. neoformans = assay: Antifungal activity assay (MIC80), C. neoformans; type: cell-based; conditions: Cryptococcus neoformans
Description: (§1) MICs were determined following the methods of the Clinical and Laboratory Standards Institutes (CLSI) with modifications. Yeast nitrogen base (YNB) medium without amino acid (pH 7.0, 2% glucose) buffered with (4-(2-hydroxyethyl)-1-piperazineethanesulfonic acid) (HEPES) was used for MIC studies in C. neoformans. YNB medium without ammonium sulfate, without amino acid and 1% asparagine (pH 7.0, 2% glucose) was used for MIC studies in Candida strains. RPMI medium (pH 7.0, 2% glucose) was used for MIC studies in A. fumigatus. […] The compounds were serially diluted from 32 to 0.03 μg/mL, in a 96-well plate. The inoculum was prepared as described in the CLSI protocol M27A3 guidelines. The plates were incubated at 37° C. with 5% CO2 for 24 to 72 h and the optical density was measure at 450 nm. The MICs were determined as the lowest concentration of the compound that inhibited 80% of growth compared to the control.
MICs was determined following the methods of the Clinical and Laboratory Standards Institutes (CLSI) with modifications. Yeast Nitrogen Base (YNB) medium (pH 7.0, 0.2% glucose) buffered with HEPES was used for MIC studies. […] The compound was serially diluted from 16 to 0.03 μg/ml, in a 96-well plate. The inoculum was prepared as described in the CLSI protocol M27A3 guidelines. The plates were incubated at 37° C. with 5% CO2 for 24 to 72 h and the optical density was measure at 450 nm. The MICs was determined as the lowest concentration of the compound that inhibited 80% of growth compared to the control.

A. fumigatus = assay: Antifungal activity assay (MIC80), A. fumigatus; type: cell-based; conditions: Aspergillus fumigatus; lowest concentration inhibiting 80% of growth; RPMI pH 7.0, 37° C., 5% CO2, 24 to 72 h
Description: as §1

C. albicans = assay: Antifungal activity assay (MIC80), C. albicans; type: cell-based; conditions: Candida albicans; lowest concentration inhibiting 80% of growth; YNB pH 7.0, 37° C., 5% CO2, 24 to 72 h
Description: as §1

[2] = test system: C. neoformans, C. albicans, A. fumigatus; assay: Broad spectrum in vitro antifungal activity; type: cell-based; conditions: in words
Description: as §1

[3] = lowest concentration inhibiting 80% of growth, YNB pH 7.0 HEPES, 37° C., 5% CO2, 24 to 72 h, read-out: MIC80 C. neoformans

Compound	MIC80 (C. neoformans; [3]) [µg/mL]	MIC80 (A. fumigatus) [µg/mL]	MIC80 (C. albicans) [µg/mL]	melting point [°C]	other results
Cc1ccccc1C(=O)N/N=C/c1ccc(O)c(Br)c1 [BHBM]					antifungal activities by inhibiting the synthesis of sphingolipid GlcCer [1]: potent antifungal activities
C#Cc1ccc(O)c(/C=N/NC(=O)c2ccc(Br)cc2Br)c1 [SB-AF-08-23, 2,4-Dibromo-N′-(5-ethynyl-2-hydroxybenzylidene)benzohydrazide]	0.03 (≈ 0.0711 µM)	2 (≈ 4.74 µM)	≤ 0.01		
C#Cc1ccc(/C=N/NC(=O)c2ccc(Br)cc2Br)c(O)c1 [SB-AF-08-27, 2,4-Dibromo-N′-(4-ethynyl-2-hydroxybenzylidene)benzohydrazide]	0.03 (≈ 0.0711 µM)	0.5 (≈ 1.18 µM)	0.12 (≈ 0.284 µM)		in vitro broad-spectrum antifungal activity [2]: excellent in vitro broad-spectrum activity
C#Cc1cccc(O)c1/C=N/NC(=O)c1ccc(Br)cc1Br [SB-AF-08-29, 2,4-Dibromo-N′-(2-ethynyl-6-hydroxybenzylidene)benzohydrazide]	0.031 (≈ 0.0734 µM)	> 32	0.5 (≈ 1.18 µM)		
C#Cc1ccc(O)c(/C=N/NC(=O)c2ccc(Br)cc2)c1 [SB-AF-10-23, 4-Bromo-N′-(5-ethynyl-2-hydroxybenzylidene) benzohydrazide]	0.007 (≈ 0.0204 µM)	2 (≈ 5.83 µM)	0.06 (≈ 0.175 µM)		
C#Cc1ccc(/C=N/NC(=O)c2ccc(Br)cc2)c(O)c1 [SB-AF-10-27, 4-Bromo-N′-(4-ethynyl-2-hydroxybenzylidene)benzohydrazide]	0.03 (≈ 0.0874 µM)	> 16	4 (≈ 11.7 µM)		
C#Cc1cccc(/C=N/NC(=O)c2ccc(Br)cc2)c1O [SB-AF-10-28, 4-Bromo-N′-(3-ethynyl-2-hydroxybenzylidene)benzohydrazide]	0.007 (≈ 0.0204 µM)	4 (≈ 11.7 µM)	2 (≈ 5.83 µM)		
C#Cc1cccc(O)c1/C=N/NC(=O)c1ccc(Br)cc1 [SB-AF-10-29, 4-Bromo-N-(2-ethynyl-6-hydroxybenzylidene)benzohydrazide]		> 32	8 (≈ 23.3 µM)		MIC80 (C. neoformans; pH 7, read-out: MIC80 C. neoformans): 0.125 µg/mL (≈ 0.364 µM)
C#Cc1ccc(O)c(/C=N/NC(=O)c2cc(Br)cc(Br)c2O)c1 [SB-AF-12-23, 2-Hydroxy-3,5-dibromo-N-(5-ethynyl-2-hydroxybenzylidene)benzohydrazide]	0.03 (≈ 0.0685 µM)	4 (≈ 9.13 µM)	0.12 (≈ 0.274 µM)		
C#Cc1ccc(/C=N/NC(=O)c2cc(Br)cc(Br)c2O)c(O)c1 [SB-AF-12-27, 3,5-Dibromo-N′-(4-ethynyl-2-hydroxybenzylidene)-2-hydroxybenzohydrazide]	0.03 (≈ 0.0685 µM)	> 16	2 (≈ 4.57 µM)		
C#Cc1ccc(O)c(/C=N/NC(=O)c2ccc(Br)c(Br)c2)c1 [SB-AF-13-23, 3,4-Dibromo-N′-(5-ethynyl-2-hydroxybenzylidene)benzohydrazide]	0.06 (≈ 0.142 µM)	2 (≈ 4.74 µM)	0.5 (≈ 1.18 µM)		
C#Cc1ccc(/C=N/NC(=O)c2ccc(Br)c(Br)c2)c(O)c1 [SB-AF-13-27, 3,4-Dibromo-N′-(4-ethynyl-2-hydroxybenzylidene)benzohydrazide]	0.007 (≈ 0.0166 µM)	> 16	8 (≈ 19 µM)		
C#Cc1cccc(/C=N/NC(=O)c2ccc(Br)c(Br)c2)c1O [SB-AF-13-28, 3,4-Dibromo-N′-(3-ethynyl-2-hydroxybenzylidene)benzohydrazide]	0.015 (≈ 0.0355 µM)	1 (≈ 2.37 µM)	4 (≈ 9.48 µM)		
C#Cc1cccc(O)c1/C=N/NC(=O)c1ccc(Br)c(Br)c1 [SB-AF-13-29, 3,4-Dibromo-N′-(2-ethynyl-6-hydroxybenzylidene)benzohydrazide]	0.06 (≈ 0.142 µM)	8 (≈ 19 µM)	16 (≈ 37.9 µM)		
C#Cc1ccc(O)c(/C=N/NC(=O)c2ccc(OC(F)(F)F)cc2F)c1 [SB-AF-25-23, 2-Fluoro-4-(trifluoromethoxy)-N-(5-ethynyl-2-hydroxybenzylidene)benzohydrazide]	4 (≈ 10.9 µM)				
C#Cc1ccc(C(=O)N/N=C/c2ccc(C#C)cc2O)cc1 [SB-AF-36-27, 4-Ethynyl-N′-(4-ethynyl-2-hydroxybenzylidene)benzohydrazide]	0.007 (≈ 0.0243 µM)	> 16	16 (≈ 55.5 µM)		

Compound	MIC80 (C. neoformans; [3]) [µg/mL]	MIC80 (A. fumigatus) [µg/mL]	MIC80 (C. albicans) [µg/mL]	melting point [°C]	other results
COCc1ccc(C(=O)N/N=C/c2ccc(Br)cc2O)cc1 [SB-AF-39-13, 4-Methoxymethyl-N′-(4-bromo-2-hydroxybenzylidene)benzohydrazide]				198 to 199	
COCc1ccc(C(=O)N/N=C/c2cc(Br)ccc2O)cc1 [SB-AF-39-15, 4-Methoxymethyl-N′-(5-bromo-2-hydroxybenzylidene)benzohydrazide]				188 to 189	
COCc1ccc(C(=O)N/N=C/c2cccc(Br)c2O)cc1 [SB-AF-39-22, 4-Methoxymethyl-N′-(3-bromo-2-hydroxybenzylidene)benzohydrazide]				187 to 188	
C#Cc1ccc(O)c(/C=N/NC(=O)c2ccc(COC)cc2)c1 [SB-AF-39-23, 4-Methoxymethyl-N′-(5-ethynyl-2-hydroxybenzylidene)benzohydrazide]	0.25 (≈ 0.811 µM)				
CCOCc1ccc(C(=O)N/N=C/c2cc(Br)cc(Br)c2O)cc1 [SB-AF-40-17, 4-Ethoxymethyl-N′-(3,5-dibromo-2-hydroxybenzylidene)benzohydrazide]				205 to 207	
CCOCc1ccc(C(=O)N/N=C/c2cccc(Br)c2O)cc1 [SB-AF-40-22, 4-Ethoxymethyl-N′-(3-bromo-2-hydroxybenzylidene)benzohydrazide]				176 to 177	
C#Cc1ccc(/C=N/NC(=O)c2ccc(COCC)cc2)c(O)c1 [SB-AF-40-27, 4-(Ethoxymethyl)-N′-(4-ethynyl-2-hydroxybenzylidene)benzohydrazide]	0.031 (≈ 0.0962 µM)		8 (≈ 24.8 µM)		
CC(C)OCc1ccc(C(=O)N/N=C/c2ccc(Br)cc2O)cc1 [SB-AF-41-13, 4-Isopropoxymethyl-N′-(4-bromo-2-hydroxybenzylidene)benzohydrazide]				193 to 195	
CC(C)OCc1ccc(C(=O)N/N=C/c2cc(Br)ccc2O)cc1 [SB-AF-41-15, 4-Isopropoxymethyl-N′-(5-bromo-2-hydroxybenzylidene)benzohydrazide]				179 to 181	
CC(C)OCc1ccc(C(=O)N/N=C/c2cc(Br)cc(Br)c2O)cc1 [SB-AF-41-17, 4-Isopropoxymethyl-N′-(3,5-dibromo-2-hydroxybenzylidene)benzohydrazide]				186 to 187	
C#Cc1ccc(/C=N/NC(=O)c2ccc(COC(C)C)cc2)c(O)c1 [SB-AF-41-27, N′-(4-Ethynyl-2-hydroxybenzylidene)-4-(isopropoxymethyl)benzohydrazide]	≤ 0.015		> 16		
C#Cc1ccc(O)c(/C=N/NC(=O)c2ccc(C3(C(F)(F)F)N=N3)cc2)c1 [SB-AF-43-23, 4-(3-(Trifluoromethyl)-3H-diazirin-3-yl)-N′-(5-ethynyl-2-hydroxybenzylidene) benzohydrazide]	0.007 (≈ 0.0188 µM)	1 (≈ 2.69 µM)	1 (≈ 2.69 µM)		
CCCOCc1ccc(C(=O)N/N=C/c2cc(Br)ccc2O)cc1 [SB-AF-44-15, 4-Propoxymethyl-N′-(5-bromo-2-hydroxybenzylidene)benzohydrazide]				175 to 176	
CCCOCc1ccc(C(=O)N/N=C/c2cc(Br)cc(Br)c2O)cc1 [SB-AF-44-17, 4-Propoxymethyl-N′-(3,5-dibromo-2-hydroxybenzylidene)benzohydrazide]				190 to 192	
C#Cc1ccc(/C=N/NC(=O)c2ccc(COCCC)cc2)c(O)c1 [SB-AF-44-27, N′-(4-Ethynyl-2-hydroxybenzylidene)-4-(propoxymethyl)benzohydrazide]	0.25 (≈ 0.743 µM)		> 16		
C#Cc1ccc(/C=N/NC(=O)c2ccc(Br)c(O)c2)c(O)c1 [SB-AF-46-27, 4-Bromo-N′-(4-ethynyl-2-hydroxybenzylidene)-3-hydroxybenzohydrazide]	1 (≈ 2.78 µM)	> 32	> 16		

From patent publication US20240336559A1, “ANTI-FUNGALS COMPOUNDS TARGETING THE SYNTHESIS OF FUNGAL SPHINGOLIPIDS” (The Research Foundation for the State University of New York, priority 2021, published 2024)
